Experimental data as given in patent US4758559A, “Pyrrolo[1,2-a] [4,1]benzoxazepine derivatives useful as calmodulin and histamine inhibitors” (Ciba-Geigy Corporation, priority 1986, dated 1988).

Columns and labels:
calmodulin = calmodulin (Bos taurus, UniProt P62157); test: inhibition of the calmodulin induced activation of bovine c-AMP phosphodiesterase; format: biochemical; conditions: in vitro; read-out: concentration inhibiting calmodulin-induced activation of phosphodiesterase by 50%
Description: The calmodulin inhibitory properties indicative of the antisecretory activity of said new compounds are determined in vitro by measuring the inhibition of the calmodulin induced activation of bovine c-AMP phosphodiesterase, according to the method described by J. A. Norman et al, Mol. Pharmacology 16, 1089 (1979).

[1] = tested on: diarrhea induced in rats by prostaglandin E2; test: inhibition of the diarrhea induced in rats by intraperitoneal prostaglandin E2; format: in vivo; conditions: 10 mg/Kg p.o. in the rat
Description: The antidiarrheal effect of the compounds of the invention is determined by measuring the inhibition of the diarrhea induced in rats by the intraperitoneal administration of prostaglandin E2.
The test is carried out as follows:
Female Sprague-Dawley rats weighing 200-250 g and fasted for 18 hours are employed. The test compounds are dissolved in dimethylsulfoxide diluted with water to a 30-50% dimethyl sulfoxide concentration and administered orally by gastric lavage in a volume of 1 ml/Kg. Thirty or sixty minutes later, prostaglandin E2 (150 μg) is administered i.p. in a volume of 0.5 ml of water. The decrease in fecal excretion compared to untreated animals is measured for a period of 30 minutes after administration of prostaglandin E2.

[2] = tested on: rat stomach parietal cells; test: inhibition of acid secretion in rat stomach parietal cells (14C-aminopyrine accumulation); format: cell-based; conditions: histamine (1 mM) and isobutyl methylxanthine (0.1 mM)
Description: Inhibition of acid secretion, indicative of antiulcer activity, can be determined in vitro in rat stomach parietal cells as follows:
Approximately 1×10^6 parietal cells (18-22% enriched) are incubated in a balanced salt solution containing glucose, BSA (bovine serum albumin), 0.1 uCi of ^14 C-aminopyrine, histamine (1 mM), isobutyl methylxanthine (0.1 mM) and the compound to be tested under 95% oxygen at 37° C. for a period of 40 minutes. The cells are then washed, ruptured with distilled water and analyzed by scintillation spectrometry. A decrease in the accumulation of ^14 C-aminopyrine in the cells represents an indirect measure of the inhibition of acid secretion.

In the case of `CC1(CN2CCC(n3c(=O)[nH]c4ccccc43)CC2)OCc2ccccc2-n2cccc21` (stereo not drawn) [Example 1, 1,3-Dihydro-1-{1-[(4-methyl-4H,6H,-pyrrolo[1,2-a][4,1]-benzoxazepin-4-yl)-methyl]-4-piperidinyl}-2H-benzimidazol-2-one (1:1)maleate], the IC50 (calmodulin) is reported as ~3 µM, the “prostaglandin E2 induced fecal excretion” value [1] is reported as “reduces prostaglandin E2 induced fecal excretion” and the IC50 [2] is reported as ~0.3 µM.
